The values that follow are results of earlier work, collected in the PKSmart pharmacokinetics tables (Seal et al. 2025).

A short description of this series: Lombardo, Berellini, Obach 2018, Drug Metab Dispos 46:1466, doi 10.1124/dmd.118.082966. The following applies: human; for MRT / Vd / clearance / half-life: in vivo, iv; for fraction unbound: plasma.

*1 amine or outer side, *2 acyl side, *3 side chain or, on linkers, in order; H or OH if unused. Where a SMILES comes first, the peptide text is derived from it. Bridges are numbered along the chain shown (N, C = ends). [ ]: non-standard residue; d: D form. The star is where a group is joined. ξ: configuration not given here. X2 = CC[C@H](C)[C@@H](N[*:1])[C@@H](O)CC(=O)OC(C(=O)C(C)C(=O)[*:2])C(C)C; ξThr(3R)(O-yl) = C[C@@H](O[*:3])C(N[*:1])C(=O)[*:2]; ξNMeY = CNC(Cc1ccc(O)cc1)C(=O)O; ξNMeL = CNC(CC(C)C)C(=O)O; Pyruvoyl = CC(=O)C(=O)*; ξL = CC(C)CC(N)C(=O)O; ξP = O=C(O)C1CCCN1

Turning to `CCC1(c2cnc[nH]2)Cc2ccccc2C1`, the MRT (commonly a mean duration of stay, worked out from the concentration-time curve) is 2.3 h; the Vd (as a rule, a proportionality between amount in the body and measured concentration, not a real space) was 2.7 L/kg; the clearance (usually a measure of how efficiently the substance is removed, as volume per time) was 19.6 mL/min/kg; the half-life (as a rule, the time needed for the level to fall by half in the phase considered) is 1.7 h.

Consider `CC(C)=CCC[C@](C)(O[C@@H]1O[C@H](CO)[C@@H](O)[C@H](O)[C@H]1O)[C@H]1CC[C@]2(C)[C@@H]1[C@H](O)C[C@@H]1[C@@]3(C)CC[C@H](O[C@@H]4O[C@H](CO)[C@@H](O)[C@H](O)[C@H]4O[C@@H]4O[C@H](CO)[C@@H](O)[C@H](O)[C@H]4O)C(C)(C)[C@@H]3CC[C@]12C`, for which the MRT was 20.2 h, the Vd was 0.11 L/kg, the clearance was 0.09 mL/min/kg and the half-life is 18.5 h.

As to `COc1cc2ncnc(Nc3ccc(F)c(Cl)c3)c2cc1OCCCN1CCOCC1`, the MRT is 32 h, the Vd was 23 L/kg and the half-life is 34 h.

Turning to `CCOC(Cc1ccc(OCCc2ccc(OS(C)(=O)=O)cc2)cc1)C(=O)O` (centres undefined), the MRT was 56 h, the Vd is 0.13 L/kg, the clearance is 0.039 mL/min/kg and the half-life is 45 h.

As for `C#CCN(C)C(C)Cc1ccccc1` (centres undefined), the MRT is 1.6 h, the Vd is 1.9 L/kg, the clearance was 20 mL/min/kg and the half-life was 1.3 h.

In the case of `C=C[C@@H]1CNCC[C@@H]1CCCc1ccnc2ccc(OC)cc12`, the MRT is 15.6 h, the Vd was 24.4 L/kg, the clearance is 26 mL/min/kg and the half-life was 12.1 h.

As to `CCN(CC)CCNC(=O)c1cc(Br)c(N)cc1OC`, the MRT was 4 h, the Vd is 3.1 L/kg, the clearance is 13 mL/min/kg and the half-life was 2.9 h. In addition, the fraction unbound (usually the share of the substance not bound to proteins or other matrix) is 0.6.

With `CN1[C@@H]2C[C@@H](OC(=O)C(CO)c3ccccc3)C[C@H]1[C@@H]1O[C@@H]12` (some centres undefined), the MRT is 3.2 h.

In the case of `C[C@]12CC=C3C4=C(CCC3[C@@H]1CC[C@@]2(O)CC#N)CC(=O)CC4` (some centres undefined), the MRT was 8.52 h, the Vd is 0.6 L/kg, the clearance was 1.29 mL/min/kg and the half-life was 11 h. For the same compound, the fraction unbound was 0.1.

As for `O=[N+]([O-])O[C@H]1CO[C@H]2[C@@H]1OC[C@H]2O`, the MRT is 2.3 h, the Vd was 0.86 L/kg, the clearance was 6.2 mL/min/kg and the half-life is 1.9 h.

As to `CC[C@H](O)[C@@H](C)[C@H]1O[C@@H]1C[C@@](C)(O)/C=C/C=C(\C)[C@H]1OC(=O)C[C@H](O)CC[C@@](C)(O)[C@@H](OC(=O)N2CCN(C3CCCCCC3)CC2)C=C[C@@H]1C`, the MRT is 3.5 h, the Vd was 10.1 L/kg, the clearance is 47.9 mL/min/kg and the half-life is 9.2 h.

Turning to `NS(=O)(=O)c1cc(C2(O)NC(=O)c3ccccc32)ccc1Cl` (centres undefined), the MRT is 43 h, the Vd is 3.9 L/kg, the clearance was 1.5 mL/min/kg and the half-life is 36 h.

In the case of `CCN(CC)CCNc1ccc(CNC=O)c2sc3ccc(OC)cc3c(=O)c12`, the MRT was 5.4 h, the Vd was 1.01 L/kg, the clearance was 3.1 mL/min/kg and the half-life is 6.19 h.

`CC(NC(CCc1ccccc1)C(=O)O)C(=O)N1CCCC1C(=O)O` (centres undefined): the MRT was 4 h, the Vd is 0.38 L/kg, the clearance was 1.6 mL/min/kg and the half-life was 39 h.

For `CCCc1c(O)n2c(N(C)C)nc3ccc(C)cc3[n+]2c1O`, the MRT was 14 h, the Vd is 0.12 L/kg, the clearance was 0.14 mL/min/kg and the half-life is 17 h. Besides, the fraction unbound is 0.004.

Consider `CN(C)[C@@H]1C(O)=C(C(N)=O)C(=O)[C@@]2(O)C(O)=C3C(=O)c4c(O)ccc(Cl)c4[C@@](C)(O)[C@H]3C[C@@H]12`, for which the MRT was 7.4 h, the Vd was 0.9 L/kg, the clearance was 2 mL/min/kg and the half-life was 7 h.

Regarding `NCC(=O)CCC(=O)O`, the MRT is 1.06 h, the Vd was 0.12 L/kg, the clearance was 1.88 mL/min/kg and the half-life was 0.83 h. Moreover, the fraction unbound is 0.88.

Consider `COc1cc2c(cc1OC)C(Cc1cc(OC)c(OC)c(OC)c1)[N+](C)(CCCOC(=O)CC/C=C/CCC(=O)OCCC[N+]1(C)CCc3cc(OC)c(OC)cc3C1Cc1cc(OC)c(OC)c(OC)c1)CC2` (centres undefined), for which the MRT is 0.87 h, the Vd was 0.27 L/kg, the clearance is 5.2 mL/min/kg and the half-life was 0.83 h. In addition, the fraction unbound is 0.7.

Turning to `CC[C@H](C)[C@H]1NC(=O)C(NC(=O)C(CC(C)C)N(C)C(=O)C2CCCN2C(=O)C(C)=O)[C@@H](C)OC(=O)C(Cc2ccc(OC)cc2)N(C)C(=O)C2CCCN2C(=O)C(CC(C)C)NC(=O)C(C)C(=O)C(C(C)C)OC(=O)C[C@@H]1O` (stereo partly drawn) (Pyruvoyl-[ξP][ξNMeL][ξThr(3R)(O-yl)][X2][ξL][ξP][ξNMeY](Me); ester 3-C), the MRT was 14.5 h, the Vd is 6.95 L/kg, the clearance was 8.05 mL/min/kg and the half-life is 16.6 h.

For `C[C@H](CCC(=O)O)[C@H]1CC[C@H]2[C@@H]3[C@H](O)C[C@@H]4C[C@H](O)CC[C@]4(C)[C@H]3CC[C@]12C`, the MRT was 0.57 h, the Vd was 0.19 L/kg, the clearance is 5.7 mL/min/kg and the half-life is 1.42 h.

As for `CC(=O)N(CC[C@@](CCN1CCCCC1)(C(N)=O)c1ccccc1Cl)C(C)C`, the MRT is 7.9 h, the Vd is 2.6 L/kg, the clearance is 5.43 mL/min/kg and the half-life was 12 h.

Consider `CC(C)NC[C@@H](O)COc1cccc2c1N(C(=O)c1cccnc1)CCC2`, for which the MRT was 3.1 h, the Vd was 0.67 L/kg, the clearance was 3.6 mL/min/kg and the half-life was 12.4 h.

For the compound `CC[C@@]1(O)C(=O)OCc2c1cc1n(c2=O)Cc2c-1nc1cc(F)c(C)c3c1c2[C@@H](N)CC3`, the mean residence time (MRT) was 7.6 h, the Vd is 0.44 L/kg, the clearance is 0.96 mL/min/kg and the half-life was 6.7 h.

In the case of `CO[C@@]1(NC(=O)C(C(=O)O)c2ccsc2)C(=O)N2C(C(=O)O)C(C)(C)S[C@@H]21` (some centres undefined), the MRT is 5.2 h, the Vd is 0.11 L/kg, the clearance is 0.34 mL/min/kg and the half-life was 4.1 h. Also, the fraction unbound is 0.21.

For the compound `CC(S)C(=O)NCC(=O)O` (centres undefined), the mean residence time MRT is 15.7 h, the Vd is 1.39 L/kg, the clearance was 1.48 mL/min/kg and the half-life is 55 h. The fraction unbound was 0.45.

Turning to `CC(=O)O[C@H]1C[C@@H]2CC[C@@H]3[C@H](CC[C@@]4(C)[C@H]3C[C@H]([N+]3(C)CCCCC3)[C@@H]4OC(C)=O)[C@@]2(C)C[C@@H]1[N+]1(C)CCCCC1`, the MRT is 2.2 h, the Vd is 0.2 L/kg, the half-life is 1.9 h and the fraction unbound is 0.09.

As for `Cc1ccc2c(-c3ccccc3)nc(=O)n(C(C)C)c2c1`, the MRT was 0.92 h, the Vd is 0.52 L/kg, the clearance was 9.45 mL/min/kg and the half-life was 1.27 h. For the same compound, the fraction unbound is 0.02.

Regarding `CC(=O)Nc1cccc(-n2c(=O)n(C3CC3)c(=O)c3c(Nc4ccc(I)cc4F)n(C)c(=O)c(C)c32)c1`, the MRT is 304 h, the Vd was 13.9 L/kg, the clearance was 0.8 mL/min/kg and the half-life was 229 h.

Turning to `COc1ccc(CC2c3cc(OC)c(OC)cc3CC[N+]2(C)CCC(=O)OCCCCCOC(=O)CC[N+]2(C)CCc3cc(OC)c(OC)cc3C2Cc2ccc(OC)c(OC)c2)cc1OC` (centres undefined), the MRT was 0.29 h, the Vd is 0.1 L/kg, the clearance was 5.7 mL/min/kg and the half-life is 0.31 h. For the same compound, the fraction unbound is 0.52.

As for `COc1ccc(Cl)cc1C(=O)NCCc1ccc(S(=O)(=O)NC(=O)NC2CCCCC2)cc1`, the MRT is 1.6 h, the Vd was 0.08 L/kg, the half-life is 2.2 h and the fraction unbound is 0.021.

In the case of `CCC1=NC(=O)C2CSSCC/C=C/[C@H](CC(=O)NC(C(C)C)C(=O)N2)OC(=O)C(C(C)C)NC1=O` (some centres undefined), the MRT is 2.6 h, the clearance was 7.4 mL/min/kg, the half-life was 11 h and the fraction unbound is 0.07.

As to `C=C1C[C@@H]2CC[C@@]34C[C@H]5O[C@H]6[C@@H](O3)[C@H]3O[C@H](CC[C@@H]3O[C@H]6[C@H]5O4)CC(=O)O[C@@H]3[C@@H](OC)[C@@H](C[C@H](O)CN)O[C@H]3C[C@H]3O[C@@H](CC[C@@H]1O2)C[C@@H](C)C3=C`, the MRT is 32.5 h, the Vd is 1.46 L/kg, the clearance is 0.75 mL/min/kg and the half-life is 37.8 h. Moreover, the fraction unbound is 0.43.
